From publication PMC7617459, “Comparative Evaluation and Profiling of Chemical Tools for the Nuclear Hormone Receptor Family 2” (ACS pharmacology & translational science, 2025)
pEC50, pIC50, pKd: −log10 of the molar value.

Columns and labels:
RXRα [1] = conditions: reporter gene assay; read-out: RXRα cellular activity/potency; cited from earlier work
RXRβ = conditions: reporter gene assay; read-out: RXRβ cellular activity/potency; cited from earlier work
TR4 = target: T1, TR4 (Homo sapiens, UniProt P49116); assay: Gal4-hybrid reporter gene assay TR4; assay type: cell-based; conditions: 1 µM
T1 construct: encoding the hinge region and the LBD of the canonical isoform of the respective human nuclear receptors; expressed in transfected cells; host or cells: HEK293T
T1 sequence (P49116 341-583 limits assumed): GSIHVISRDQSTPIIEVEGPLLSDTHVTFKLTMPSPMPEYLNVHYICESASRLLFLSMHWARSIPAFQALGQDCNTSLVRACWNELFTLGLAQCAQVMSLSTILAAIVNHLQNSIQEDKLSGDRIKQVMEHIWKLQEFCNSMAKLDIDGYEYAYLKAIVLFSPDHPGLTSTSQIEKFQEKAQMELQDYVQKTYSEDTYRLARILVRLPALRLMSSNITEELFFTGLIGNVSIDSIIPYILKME
Method: (§1) Gal4-hybrid reporter gene assays were performed as described previously using the plasmids pFA-CMV-hTHRα-LBD,[170] pFA-CMV-hRARα-LBD,[171] pFA-CMV-hPPARα-LBD,[172] pFA-CMV-hPPARγ-LBD,[172] pFA-CMV-hPPARδ-LBD,[172] pFA-CMV-revERBα-LBD,[158] pFA-CMV-hRORα-LBD,[173] pFA-CMV-hLXRα-LBD,[118] pFA-CMV-hFXR-LBD,[174] pFA-CMV-hVDR-LBD,[171] pFA-CMV-hCAR-LBD,[171] pFA-CMV-hHNF4α-LBD,[110] pFA-CMV-hRXRα-LBD,[175] pFA-CMV-hTR2-LBD,[102] pFA-CMV-hTR4-LBD,[102] pFA-CMV-hTLX-LBD,[102] pFA-CMV-hNR2E3-LBD,[102] pFA-CMV-hNur77-LBD,[176] pFA-CMV-hSF1-LBD[158] encoding the hinge region and the LBD of the canonical isoform of the respective human nuclear receptors. pFR-Luc (Stratagene, La Jolla, CA, USA) was used as a reporter plasmid, and pRL-SV40 (Promega, Madison, WI, USA) was used for normalization of transfection efficiency and cell growth. […] After 16 h incubation, luciferase activity was measured using the Dual-Glo Luciferase Assay System (Promega) according to the manufacturer’s protocol on a Tecan Spark luminometer (Tecan Deutschland GmbH, Crailsheim, Germany). Firefly luminescence was divided by Renilla luminescence and multiplied by 1000 resulting in relative light units (RLUs) to normalize for transfection efficiency and cell growth. […] Antagonistic effects were evaluated by coincubation of the test compound with the respective reference ligand.

PNR (NR2E3) = target: T2, PNR (NR2E3) (Homo sapiens, UniProt Q9Y5X4); assay: Gal4-hybrid reporter gene assay PNR; assay type: cell-based; conditions: selected test concentration (Figure 3)
T2 construct: encoding the hinge region and the LBD of the canonical isoform of the respective human nuclear receptors; expressed in transfected cells; host or cells: HEK293T
T2 sequence (Q9Y5X4 169-410 limits assumed): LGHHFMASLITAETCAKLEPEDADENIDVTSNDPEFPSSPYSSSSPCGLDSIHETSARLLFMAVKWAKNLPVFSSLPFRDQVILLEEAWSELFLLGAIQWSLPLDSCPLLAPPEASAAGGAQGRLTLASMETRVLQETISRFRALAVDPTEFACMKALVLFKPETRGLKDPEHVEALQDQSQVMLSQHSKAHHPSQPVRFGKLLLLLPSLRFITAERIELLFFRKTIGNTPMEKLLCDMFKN
Method: Gal4-hybrid reporter gene assays were performed as described previously using the plasmids pFA-CMV-hTHRα-LBD,[170] pFA-CMV-hRARα-LBD,[171] pFA-CMV-hPPARα-LBD,[172] pFA-CMV-hPPARγ-LBD,[172] pFA-CMV-hPPARδ-LBD,[172] pFA-CMV-revERBα-LBD,[158] pFA-CMV-hRORα-LBD,[173] pFA-CMV-hLXRα-LBD,[118] pFA-CMV-hFXR-LBD,[174] pFA-CMV-hVDR-LBD,[171] pFA-CMV-hCAR-LBD,[171] pFA-CMV-hHNF4α-LBD,[110] pFA-CMV-hRXRα-LBD,[175] pFA-CMV-hTR2-LBD,[102] pFA-CMV-hTR4-LBD,[102] pFA-CMV-hTLX-LBD,[102] pFA-CMV-hNR2E3-LBD,[102] pFA-CMV-hNur77-LBD,[176] pFA-CMV-hSF1-LBD[158] encoding the hinge region and the LBD of the canonical isoform of the respective human nuclear receptors. pFR-Luc (Stratagene, La Jolla, CA, USA) was used as a reporter plasmid, and pRL-SV40 (Promega, Madison, WI, USA) was used for normalization of transfection efficiency and cell growth. HEK293T cells (German Collection of Microorganisms and Cell Culture GmbH, DSMZ) were cultured in Dulbecco’s modified Eagle’s medium (DMEM), high glucose supplemented with 10% fetal calf serum (FCS), sodium pyruvate (1 mM), penicillin (100 U/mL), and streptomycin (100 μg/mL) at 37 °C and 5% CO2 and seeded in 96-well plates (3 × 10^4 cells/well). The medium was changed to Opti-MEM without supplements, and the cells were transiently transfected with one pFA-CMV-hNR-LBD clone, pFR-Luc, and pRL-SV40 using Lipofectamine LTX reagent (Invitrogen, Thermo Fisher Scientific) according to the manufacturer’s instructions. Five hours after transfection, cells were incubated with the test compounds in Opti-MEM supplemented with penicillin (100 U/mL), streptomycin (100 μg/mL), and 0.1% DMSO. Each sample was set up in duplicates and tested in at least three independent experiments. After 16 h incubation, luciferase activity was measured using the Dual-Glo Luciferase Assay System (Promega) according to the manufacturer’s protocol on a Tecan Spark luminometer (Tecan Deutschland GmbH, Crailsheim, Germany). Firefly luminescence was divided by Renilla luminescence and multiplied by 1000 resulting in relative light units (RLUs) to normalize for transfection efficiency and cell growth. Fold activation was obtained by dividing the mean RLU of the test compound by the mean^a RLU of the untreated control, and relative activation was calculated by dividing the fold activation of a test sample by the fold activation of the respective reference agonist. Antagonistic effects were evaluated by coincubation of the test compound with the respective reference ligand.

RXRα [2] = target: T3, RXRα (Homo sapiens, UniProt P19793); assay: Gal4-hybrid reporter gene assay RXRα; conditions: 1 µM
T3 sequence (P19793 227-458 limits assumed): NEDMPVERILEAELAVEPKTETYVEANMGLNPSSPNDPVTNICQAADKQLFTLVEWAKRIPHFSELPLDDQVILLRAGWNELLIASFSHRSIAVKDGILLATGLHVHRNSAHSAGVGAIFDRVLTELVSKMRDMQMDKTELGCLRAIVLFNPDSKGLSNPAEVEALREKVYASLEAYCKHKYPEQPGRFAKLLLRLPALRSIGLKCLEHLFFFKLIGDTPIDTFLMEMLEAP

RXRγ = conditions: reporter gene assay; read-out: RXRγ cellular activity/potency; cited from earlier work
TR2 = target: T4, TR2 (Homo sapiens, UniProt P13056); assay: Gal4-hybrid reporter gene assay TR2; assay type: cell-based; conditions: 1 µM
T4 construct: encoding the hinge region and the LBD of the canonical isoform of the respective human nuclear receptors; expressed in transfected cells; host or cells: HEK293T
T4 sequence (P13056 348-590 limits assumed): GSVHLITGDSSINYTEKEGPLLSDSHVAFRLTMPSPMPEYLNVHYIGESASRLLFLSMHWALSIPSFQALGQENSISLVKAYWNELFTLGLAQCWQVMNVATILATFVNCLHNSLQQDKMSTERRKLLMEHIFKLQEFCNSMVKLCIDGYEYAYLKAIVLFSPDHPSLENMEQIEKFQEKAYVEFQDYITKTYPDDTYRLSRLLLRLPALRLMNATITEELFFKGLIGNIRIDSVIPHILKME
Method: as §1

TLX [3] = target: T5, TLX (Homo sapiens, UniProt Q9Y466); assay: Gal4-hybrid reporter gene assay TLX; assay type: cell-based; conditions: selected test concentration (Figure 3)
T5 construct: encoding the hinge region and the LBD of the canonical isoform of the respective human nuclear receptors; expressed in transfected cells; host or cells: HEK293T
T5 sequence (Q9Y466 155-383 limits assumed): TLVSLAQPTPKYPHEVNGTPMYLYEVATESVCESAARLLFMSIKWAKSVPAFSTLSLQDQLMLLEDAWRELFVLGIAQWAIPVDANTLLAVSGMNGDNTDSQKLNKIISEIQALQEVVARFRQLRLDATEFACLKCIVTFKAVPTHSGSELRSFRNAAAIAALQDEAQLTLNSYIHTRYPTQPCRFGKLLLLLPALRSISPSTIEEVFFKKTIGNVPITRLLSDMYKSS

full-length TLX = conditions: reporter gene assay; read-out: IC50 (second value of cell; full-length TLX); cited from earlier work
TLX [4] = conditions: reporter gene assay; read-out: IC50 (first value of cell; TLX/Gal4); cited from earlier work
TLX LBD = conditions: FP assay, cited from earlier work
RARα = RARα (Homo sapiens, UniProt P10276); conditions: selected test concentration (Figure 3)
Sequence of RARα (P10276 183-417 limits assumed): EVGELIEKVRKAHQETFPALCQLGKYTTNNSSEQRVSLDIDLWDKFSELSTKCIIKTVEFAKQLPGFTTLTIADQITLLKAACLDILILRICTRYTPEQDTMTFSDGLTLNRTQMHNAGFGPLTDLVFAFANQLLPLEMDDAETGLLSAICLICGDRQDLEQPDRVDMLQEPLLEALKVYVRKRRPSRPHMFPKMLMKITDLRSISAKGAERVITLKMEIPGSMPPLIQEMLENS
Method: HEK293T cells (German Collection of Microorganisms and Cell Culture GmbH, DSMZ) were cultured in Dulbecco’s modified Eagle’s medium (DMEM), high glucose supplemented with 10% fetal calf serum (FCS), sodium pyruvate (1 mM), penicillin (100 U/mL), and streptomycin (100 μg/mL) at 37 °C and 5% CO2 and seeded in 96-well plates (3 × 10^4 cells/well). The medium was changed to Opti-MEM without supplements, and the cells were transiently transfected with one pFA-CMV-hNR-LBD clone, pFR-Luc, and pRL-SV40 using Lipofectamine LTX reagent (Invitrogen, Thermo Fisher Scientific) according to the manufacturer’s instructions. […] After 16 h incubation, luciferase activity was measured using the Dual-Glo Luciferase Assay System (Promega) according to the manufacturer’s protocol on a Tecan Spark luminometer (Tecan Deutschland GmbH, Crailsheim, Germany). Firefly luminescence was divided by Renilla luminescence and multiplied by 1000 resulting in relative light units (RLUs) to normalize for transfection efficiency and cell growth. Fold activation was obtained by dividing the mean RLU of the test compound by the mean^a RLU of the untreated control, and relative activation was calculated by dividing the fold activation of a test sample by the fold activation of the respective reference agonist. Antagonistic effects were evaluated by coincubation of the test compound with the respective reference ligand.

RARs and RXRs = tested on: RARs and RXRs; design: method as in PMID 32763139; conditions: cited from earlier work
HEK293T cells = conditions: cited from earlier work

Row | TLX modulation (TLX [3]) | RAR activation (RARα) | Structure (SMILES) | pEC50 (RXRα [1]) | pEC50 (RXRβ) | TR4 off-target activity (TR4) | PNR modulation (PNR (NR2E3)) | RXR activation (RXRα [2]) | pEC50 (RXRγ) | TR2 off-target activity (TR2) | pIC50 (full-length TLX) | pIC50 (TLX [4]) | effect on atrophin binding to TLX LBD (TLX LBD) | pKd (TLX LBD; no precise value reported) | activity on RARs and RXRs (RARs and RXRs) | toxicity in HEK293T cells used for the reporter gene assays (HEK293T cells)
1 |  |  | CC1(C)CCC(C)(C)c2cc(C3(c4ccc(C(=O)O)cc4)OCCO3)ccc21 [compound 11] | 7.54 | 7.01 | off-target activities | off-target activities | strong RXR activation | 6.63 | off-target activities |  |  |  |  |  | 
2 | not observed | activated RAR | CC1(C)CC=C(c2ccccc2)c2cc(/C=C/c3ccc(C(=O)O)cc3)ccc21 [compound 17] |  |  |  |  |  |  |  | 6.80 | 6.44 | displacement of atrophin | ~6.00 | agonism on RARs and RXRs | pronounced toxicity
